{"source": "patent US11186598B2", "about": "“Radioactive phospholipid metal chelates for cancer imaging and therapy” (Wisconsin Alumni Research Foundation, priority 2016, dated 2021)", "system": "flank U87 tumors", "experiment": "MRI comparison of Gd-DO3A-404 and DOTAREM in mice with flank U87 tumors (Example 5)", "assay_type": "in vivo, mouse", "conditions": "as compared to Gd-DO3A-404", "text": "To verify that uptake and retention was due to targeting of the “404” moiety, we directly compared the uptake of Gd-DO3A-404 with that of DOTA-chelated Gd^3+ (DOTAREM®) in an identical tumor model (mice with flank U87 tumors) and imaging scenario, using the same number of moles of each.\nWe the quantified the tumor to muscle ratio and compare it to baseline scans."}
{"smiles": "CNC[C@H](O)[C@@H](O)[C@H](O)[C@H](O)CO.O=C([O-])CN1CCN(CC(=O)[O-])CCN(CC(=O)O)CCN(CC(=O)[O-])CC1.[Gd+3]", "note": "[DOTAREM®]", "values": [{"measurement": "tumor to muscle ratio compared to baseline scans (uptake)", "result": "less striking, and significant only at a couple of early time points"}]}
